Assay results published in patent US10238641B2, “Materials and methods for diagnosis, prevention and/or treatment of stress disorders and conditions associated with A-beta peptide aggregation” (The United States of America as represented by the …, priority 2008, dated 2019).

Test system: nAChRs
Format: cell-based, rat

For CN1CCCC1c1cccnc1 (stereo not shown) [nicotine, reference compound], the “reversal by α-Bgt of the beneficial actions against Aβ toxicity” value was “able to reverse the beneficial actions of nicotine”.
